From patent US9359322B2, “C-linked glucuronide of N-(4-hydroxybenzyl) retinone, analogs thereof, and methods of using the same to inhibit neoplastic cell growth” (Wisconsin Alumni Research Foundation, priority 2005, dated 2016) come the findings set out here.

Marks after values point to notes of the source that are not given here.

Series [1] relates to DMBA-induced rat mammary tumor. Briefly: DMBA-induced rat mammary tumor model, retinoid-containing diets. It is filed as in vivo. As for the experimental part:
Preliminary evaluation of the mammary tumor chemotherapeutic activity of 4-HBRCG (7) was conducted, and its toxicity profile was also assessed. As previously described,^7, 12 tumor-bearing female rats (treated ca. 50 days earlier with 7,12-dimethylbenz(a)anthracene [DMBA]) were fed the control or retinoid-containing diets (RA (2), 4-HPR (3) or 4-HBRCG (7)) at 2 mmole/kg diet for 22 days.
Animal Studies: Mammary tumors were induced by intragastric intubation of 50-day old female Sprague-Dawley rats (Harlan Industries, Indianapolis, Ind.) with a single dose of 15 mg DMBA in 1.0 ml of sesame oil per rat. The rats were then maintained on a powdered Teklad 22/5 rodent chow diet (W) 8640 (Harlan Industries, Indianapolis, Ind.), and allowed food and water ad libitum. Four months later, rats which had developed palpable tumors were randomly assigned to the experimental groups (4 rats/group). The retinoid-treated groups were fed diets supplemented with 2 mmol/kg diet of atRA, 4-HPR, or 4-HBRCG, respectively. The retinoids were added to the diet in a vehicle consisting of 25 ml of ethanol: tricaprylin (1:4 v/v) plus 2% (w/v) of α-tocopherol as previously described.^9 This vehicle was also added to the control diet. The additives were blended into the chow diets using a Hobart food mixer. The diets were fed in stainless steel feeders designed with food hoppers. The food was replaced weekly with freshly prepared diets. Food consumption was determined once weekly, and from that the average daily consumption/rat was estimated. These diets were continuously fed for 22 days. Animals were also weighted weekly and monitored for general health status and signs of possible toxicity due to treatment.
(§1) Baseline measurement of initial tumor sizes, numbers and rat body weights were determined immediately before commencement of treatments, and final measurements were recorded just prior to sacrifice of the animals. Animals were palpated for tumors twice weekly and tumor diameters were measured weekly by a micrometer caliper. Tumor volumes were calculated using the formula [V= 4/3 πr^3] where r is one-half the mean of the sum of the largest diameter and the axis at right angle to it. All tumors as well as lungs, liver, kidney and femur were excised at the end of the experiment for chemical and histopathological evaluation. Blood samples were also taken from each animal for determination of plasma retinol and triglyceride levels.

Series [2] can be described thus: Plasma retinol level (HPLC). To be noted: 2 mmol/kg diet. It is filed as in vivo, rat. Here is the method:
as §1
Plasma Retinoid Assay. To 500 μL of plasma was added 150 μL of ethanol containing 0.75 μg of internal standard (N-(4-chlorophenyl) retinamide). After mixing 30 sec., 500 μL of ethyl acetate was added followed by 1 min. of mixing and centrifugation for 5 minutes at 1000 rpm in an IEC CL centrifuge. The ethyl acetate layer was removed and syringe filtered through a 0.45 um filter. The ethyl acetate extraction was repeated two more times. The combined extracts were evaporated and the residue reconstituted in 100 μL of methanol. The methanol extract (20 μL) was analyzed by HPLC on a Beckman Instruments model 127 instrument equipped with a model 166 UV detector. Chromatography was done on a precolumn equipped 250×4.6 mm Bechman Ultrasphere ODS column with an 85% methanol/water mobile phase (both containing 10 mM ammonium acetate) flowing at 1 mL/min. Analysis for both internal standard and retinol was conducted at 350 nm and internal standard recoveries and retinol levels were determined by comparison with standard curves, with adjustment of the retinol level based on recovery. Recoveries of internal standard averaged ca. 78%. […] In the 4-HPR treated group, plasma levels of this retinoid were evaluated simultaneously in the same samples as above. In order to avoid interfering substances, plasma treatment retinoid levels for RA and 4-HBRCG were measured using the above system and a step gradient of 75% methanol for 15 min. followed by 85% methanol for 40 minutes.

Series [3] in a line: Plasma triglyceride measurement. Type of series: in vivo, rat. To be noted: 2 mmol/kg diet, 22 days; FIG. 2A. Here is the method:
Plasma Triglyceride Measurement. Bloods were drawn from anesthetized animals in the presence of EDTA as an anticoagulant, and the resulting plasma was used for the measurement of plasma “true” triglyceride levels using a kit from Sigma-Aldrich (Saint Louis, Mo.). Briefly, the total plasma triglyceride and glycerol concentrations were determined, and the glycerol component was subtracted from the total plasma triglyceride measurement to obtain the “true” serum triglyceride concentration.

Another series has as its target T1, RXRγ (Homo sapiens, UniProt P48443).
T1 sequence (P48443 1-463): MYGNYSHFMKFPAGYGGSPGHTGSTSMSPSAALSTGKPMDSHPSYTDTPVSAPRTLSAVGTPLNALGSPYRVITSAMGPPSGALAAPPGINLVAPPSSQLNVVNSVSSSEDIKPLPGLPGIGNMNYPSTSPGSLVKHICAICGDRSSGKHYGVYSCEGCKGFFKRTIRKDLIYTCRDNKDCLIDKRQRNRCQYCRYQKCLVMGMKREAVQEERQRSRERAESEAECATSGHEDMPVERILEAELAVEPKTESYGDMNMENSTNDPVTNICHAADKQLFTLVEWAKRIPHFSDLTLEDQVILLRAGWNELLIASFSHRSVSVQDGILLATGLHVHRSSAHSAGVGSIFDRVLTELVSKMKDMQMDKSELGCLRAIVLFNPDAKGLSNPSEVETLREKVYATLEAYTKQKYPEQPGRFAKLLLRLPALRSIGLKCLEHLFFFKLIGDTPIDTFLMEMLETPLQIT
Briefly: Nuclear retinoid receptor binding assay, competition with [3H]9-cis RA. To be noted: 4-HBRCG up to 10^−4.5 M; data not shown. As for the experimental part: Nuclear Retinoid Receptor Binding Assay. Competition of 3 and 7 and 4-HBRCGlucose with [^3H]-all-trans-RA (4.2-4.6 nM) for binding to RARβ and RARγ and with [^3H]-9-cis RA (1.9 nM) for binding to RXRγ was determined using an in vitro ligand binding assay.^41, 42 [^3H]-all-trans-RA (40.5 Ci/mmole) or [^3H]-9-cis-RA (69.4 Ci/mmole) was added to receptor-containing extracts in the absence and presence of increasing concentrations of competing ligands at 4° C. for 3 hr. A hydroxylapatite (HAP) assay was used to separate ligand bound to receptor from that free in solution, and the radioactivity associated with the HAP pellet was measured by scintillation counting.

A further series concerns CYP26A1 mRNA. Briefly: Induction of CYP26A1 mRNA in liver (Q-PCR). Type of series: in vivo, rat. Conditions: at sacrifice, retinoid-fed rats, 2 mmol/kg diet; FIG. 4.
The next series deals with CYP26B1 mRNA. Briefly: Induction of CYP26B1 mRNA in lung (Q-PCR). Type of series: in vivo, rat. Conditions: at sacrifice, retinoid-fed rats, 2 mmol/kg diet; data not shown.
Setting [4] is: number of individual tumors, 2 mmol/kg diet, 22 days.

For `CC1=C(/C=C/C(C)=C/C=C/C(C)=C/C(=O)Cc2ccc(CC3OC(C(=O)O)C(O)C(O)C3O)cc2)C(C)(C)CCC1` [4-HBRCG (7), 2,6-Anhydro-7-deoxy-7-[4-(retinoylmethyl)-phenyl]-L-glycero-L-gulo-heptinoic acid], in series [1] (2 mmol/kg diet for 22 days), the “% Change in tumor volume from baseline” value was −33 ^d %. In addition, in series [1] (2 mmol/kg diet for 22 days, mean ± SEM), the Final tumor volume is listed as 0.08 ± 0.05 cm^3. The Initial tumor volumes in series [1] (baseline before treatment, mean ± SEM) is 0.12 ± 0.06 cm^3. Moreover, in series [1] (setting [4]), the “Complete regression (tumors that totally disappeared)” value came to 2, the No effect came to 2 and the “Partial regression (tumors with 25-75% decrease in volume)” value was found to be 6. Moreover, the New tumors in series [1] (number of tumors, 2 mmol/kg diet, 22 days) was 0. Besides, the “Effect on blood retinol” value in series [2] is on record as “did not produce any significant reduction in blood retinol”. Further, in series [2] (day 22 of treatment, mean ± SEM), the Plasma retinol was 0.40 ± 0.04 µg/mL. Further, in series [3], the “Effect on serum triglyceride concentration” value was “did not cause this undesirable effect”. The “Competition for [3H]9-cis RA binding to RXR” value on RXRγ is “almost no competition”. Moreover, the “Induction of CYP26A1 mRNA in liver” value with CYP26A1 mRNA is reported as “did not induce these cytochrome p450 mRNAs”. The “Induction of CYP26B1 mRNA in lung” value in the series on CYP26B1 mRNA is listed as “did not induce these cytochrome p450 mRNAs”.
